Experimental findings from publication PMC6290023 (Scientific Reports, 2018) are described below.

Peptide text beside a SMILES is read from it.

Data set [1] is described as follows: Pharmacokinetics after intravenous injection 4 h after tMCAo (LC/MS/MS). The following applies: mouse, i.v. 2 mg/ml, 10 ml/kg in 0.45% saline. It counts as in vivo. The procedure: MHP1-Ac or MHP1-AcN (2 mg/ml, 10 ml/kg in 0.45% saline) was administered intravenously 4 hrs after tMCAo and mouse plasma was collected at 5 min, 10 min, 20 min, 30 min, 45 min, 1 h, and 2 h after injection. Mouse plasma (C57BL6J, 10 µL) and water/phosphoric acid (24:1, v/v) (Solution B, 500 µL) were mixed together to prepare the plasma samples. The samples (510 µL) were then analyzed using LC/MS/MS to determine MHP1-Ac or MHP1-AcN in plasma. Mouse brain was weighed and mixed with a 4-fold volume of solution B and the mixture was homogenized to prepare the brain samples. The specific gravity of solution B was assumed to be 1. The brain samples (10 µL) were analyzed using LC/MS/MS to determine MHP1-Ac or MHP1-AcN in brain. MHP1-Ac and MHP1-AcN, and MHP1-N (internal standard), in the plasma samples and brain samples, were extracted using Oasis HLB μElution Plate (Waters). Chromatographic analysis was performed on an InertSustain C18 (2.1 mm I.D. ×50 mm, 3 µm, GL Sciences) column using the mobile phase A, water/formic acid (1000:1, v/v), and the mobile phase B, acetonitrile/formic acid (1000:1, v/v).

Data set [2] deals with mouse osteoclast precursor cells. Description: Osteoclast differentiation of mouse osteoclast precursor cells (TRAP-positive large cells). The format is cell-based. The note with it: M-CSF 50 ng/ml, 5 days. The procedure: Osteoclast differentiation was examined using a mouse osteoclast culture system obtained from Cosmo Bio Co. Ltd. (Tokyo, Japan). Mouse osteoclast precursor cells seeded in a 24-well plate were incubated with macrophage colony stimulating factor (50 ng/ml) and RANKL (50 ng/ml) with or without MHP1-AcN. After five days, osteoclast precursors stimulated with RANKL had fused with each other and became multinucleated TRAP-positive cells. Cells with more than ten nuclei were classified as large osteoclasts. The number of these cells in each group was counted with a phase contrast microscope (BZ-9000, Keyence, Tokyo) using BZII analyzer software (v1.42; Keyence, Tokyo).

Data set [3] deals with LPS-stimulated MG6 cells. Description: LDH assay in LPS-stimulated MG6 cells. It counts as cell-based, mouse.
The next data set has as its system tPA-induced hemorrhage. The format is in vivo. The note with it: mouse tMCAo, MHP1-AcN 150 µg/mice combined with tPA 10 mg/kg after reperfusion at 6 h; 24 h after ischemia. The procedure:
(§1) The ischemic damage was evaluated at 48 h after MCAo in sections stained with cresyl violet. Coronal sections (12 μm thickness) were made at −1.4, −0.7, 0, 0.7 and 1.4 mm from the bregma, mounted on the stereomicroscope and photographed. The volume of the infarct was calculated by the sum of each area of all sections corrected by cerebral edema and multiplied by the thickness of the slices. In the experiment of tPA-induced hemorrhage, PE10-catheter was placed in the right internal jugular vein at 6 h after ischemia. The nylon suture was then removed and 10% of the MHP-AcN mixture (150 µg/mice) and tPA (10 mg/kg) were injected followed by continuous injection of residual mixture of MHP1-AcN and tPA using a syringe pump (UNIVENTOR 400 ANAESTHESIA UNIT, ZTN, MALTA). In the experiment of FeCl3 -induced thrombosis model in CCA, a piece of filter paper soaked in 7.5% FeCl3 was placed on the right CCA for 1 min and it was rinsed with saline. Blood flow was recorded by using a laser speckle blood flow imager (OMEGAZONE OZ-2, OMEGAWAVE, INC., Tokyo, Japan). tPA (10 mg/kg) or mixture of MHP1-AcN (150 μg/mice) and tPA was started to be administered at 30 min after CCA occlusion.

In data set [4] the test system is FeCl3-induced thrombosis model in CCA. Description: FeCl3-induced thrombosis model in CCA, thrombolysis with tPA. It counts as in vivo. The note with it: mouse, MHP1-AcN 150 μg/mice combined with tPA 10 mg/kg, 30 min after CCA occlusion. The procedure: as §1
Data set [5] in a line: Dissolution in water and sedimentation in 0.45% saline at 37 °C for 24 h. The format is physicochemical. The note with it: for sedimentation after incubation in 0.45% saline: 37 °C, 24 h, visual. The procedure: Synthetic MHP1 (NH2-[…]-COOH), MHP1-DN1 (NH2-LMVYVV-DLys-[…]-COOH), MHP1-DN2 (NH2-LMV-DTyr-[…]-COOH), MHP1-DN3 (NH2-L-DMet-[…]-COOH), MHP1-DC (NH2-LMVYVVKTSIKIPSSHNL-DMet-KGGSTKNWSGN-COOH), MHP1-Ac (Ac-[…]-COOH), MHP1-AcN (Ac-[…]-HN2), or MHP1-N (NH2-[…]-NH2) was purchased from ILS, Inc (Ibaraki, Tsukuba, Japan), dissolved in 1 or 2 mg/ml ddH2O and stored at 4 °C until use (Table 1).

The test system of data set [6] is LPS-stimulated MG6 cells. Description: Anti-inflammatory effect in LPS-stimulated MG6 cells (TNF-α / IL-6 ELISA). It counts as cell-based, mouse. The procedure:
MG6 cells were obtained from RIKEN BRC (Tsukuba, Japan)[25],[26]. The MG6 cells were maintained in DMEM (Nakarai, Kyoto, Japan) supplemented with 10% FBS (Thermo Fisher Scientific, Waltham, MA, USA), 10 μg/ml insulin (Sigma-Aldrich, St. Louis, MO, USA) and 100 μM 2-mercaptoethanol (Sigma-Aldrich). These cells (1 × 10^5 cells) were plated in 96-well plastic culture dishes. After overnight incubation, the medium was replaced with DMEM supplemented with 4% FBS. LPS (Escherichia coli 0111: B4; Sigma-Aldrich, St. Louis, MO, USA) and MHP1 or modified MHP1 was added to the medium, which was then harvested at 24 h after stimulation. In the experiment checking the stability at 26 or 37 °C, MHP1-Ac or MHP1-AcN was incubated at 26 or 37 °C for 24 h before adding to the medium.
The concentrations of TNF-α and IL-6 were measured using commercially available ELISA kits: TNF-α, Quantikine Mouse TNF-α ELISA Kit (R&D systems); IL-6, Quantikine Mouse IL-6 ELISA Kit (R&D systems).

Where [7] appears, read: LPS-stimulated MG6 cells, medium harvested 24 h after stimulation, ELISA.

As to `CC[C@H](C)[C@H](NC(=O)[C@H](CO)NC(=O)[C@@H](NC(=O)[C@H](CCCCN)NC(=O)[C@@H](NC(=O)[C@@H](NC(=O)[C@H](Cc1ccc(O)cc1)NC(=O)[C@@H](NC(=O)[C@H](CCSC)NC(=O)[C@H](CC(C)C)NC(C)=O)C(C)C)C(C)C)C(C)C)[C@@H](C)O)C(=O)N[C@@H](CCCCN)C(=O)N[C@H](C(=O)N1CCC[C@H]1C(=O)N[C@@H](CO)C(=O)N[C@@H](CO)C(=O)N[C@@H](Cc1c[nH]cn1)C(=O)N[C@@H](CC(N)=O)C(=O)N[C@@H](CC(C)C)C(=O)N[C@@H](CCSC)C(=O)N[C@@H](CCCCN)C(=O)NCC(=O)NCC(=O)N[C@@H](CO)C(=O)N[C@H](C(=O)N[C@@H](CCCCN)C(=O)N[C@@H](CC(N)=O)C(=O)N[C@@H](Cc1c[nH]c2ccccc12)C(=O)N[C@@H](CO)C(=O)NCC(=O)N[C@@H](CC(N)=O)C(N)=O)[C@@H](C)O)[C@@H](C)CC` [MHP1-AcN] (Ac-LMVYVVKTSIKIPSSHNLMKGGSTKNWSGN-NH2), the level at 0.5 h in data set [1] (C57BL6J, iv, 20 mg/kg, plasma, 30 min, read-out: intact peptide in plasma 30 min post-injection) is approximately 8000 ng/mL. For the same compound, the “time post-injection until which peptide was detected in the brain” value in data set [1] (brain homogenate, last sampling 2 h) amounted to 2 h. The “effect on RANKL-induced osteoclast differentiation” value in data set [2] (RANKL 50 ng/ml) is recorded as “inhibited RANKL-induced osteoclast differentiation”. For the same compound, in data set [2] (without RANKL), the “effect on osteoclast differentiation (peptide alone)” value is reported as “did not affect the osteoclast differentiation”. In addition, in the data set on LPS-stimulated MG6 cells [3], the “cytotoxicity (LDH assay)” value was “did not increase cytotoxicity”. Besides, in the data set with tPA-induced hemorrhage, the “effect on tPA-induced hemorrhagic formation” value is listed as “reduced formation of hemorrhage”. For the same compound, the “effect on time of recanalization by tPA” value in data set [4] was “did not affect the time of recanalization”. In addition, in data set [5] (1 mg/ml), the “sedimentation after incubation in 0.45% saline” value is reported as “sedimentation was not observed”. Also, the “sedimentation after incubation in 0.45% saline” value in data set [5] (2 mg/ml) was “sedimentation was not observed”. The dissolution in water result in data set [5] (water) is recorded as “easily dissolved in water”. Moreover, the “anti-inflammatory effects at 1 µg/ml” value with LPS-stimulated MG6 cells [6] (LPS-stimulated MG6 cells, 1 µg/ml peptide) is given as “anti-inflammatory effects were seen”. For the same compound, in the data set with LPS-stimulated MG6 cells [6] (LPS-stimulated MG6 cells, 24 h, ELISA), the “dose dependency of anti-inflammatory effects” value is “Dose-dependent anti-inflammatory effects were observed”. In the data set with LPS-stimulated MG6 cells [6] (setting [7]), the “inhibition of IL-6 expression compared with MHP1” value is reported as “more effective than MHP1” and the “inhibition of TNF-α expression compared with MHP1” value is recorded as “more effective than MHP1”. Besides, the “expression of TNF-α with peptide pre-incubated at 4, 37 or 26 °C (retention of anti-inflammatory effect)” value in the data set with LPS-stimulated MG6 cells [6] (peptide incubated at 4, 37 or 26 °C for 24 h, then added to LPS-stimulated MG6 cells) was “no significant differences”.
